The text below walks through data of patent publication US5235039A, “Substrates for HIV protease” (Eli Lilly and Company, priority 1991, dated 1993).

The assay concerns the target T1, HIV-1 protease (HIV-1 M:B_HXB2R, UniProt P04585).
T1 construct: enzyme solution in MES-ALB buffer
The experiment in a line: HIV-1 protease inhibitor assay (particle concentration fluorescence, Pandex). The assay is classed as biochemical. The following applies: inhibitor at a concentration of about 7 μM; FIG. 1. How it is done:
The modified decapeptide is dissolved in a suitable buffer at a pH between about 5 and about 6 to form a solution at a desirable concentration, e.g. about 1.5 μg/ml. A separate solution of the protease in the same buffer is prepared at a sufficient concentration of protease to hydrolyze all substrate. To each well of a round-bottom, 96-well plate, e.g. a polystyrene microtiter plate, is added the enzyme solution followed by a buffered solution of the inhibitor compound. The solution of the inhibitor may be diluted in 20% aqueous dimethylsulfoxide when necessary for solubility. The plates are allowed to stand for about one hour at about room temperature before the substrate solution is added to each well. […] Unbound fluorescence is removed by filtration and subsequent washing with buffer. Any bound fluorescence is detected by excitation at 485 nm and reading the resulting epifluorescence at 535 nm. The amount of fluorescence indicates the extent to which the enzymatic reaction is inhibited.
As described hereinabove the Pandex Plates used in the assay method are 96-well two-chamber plates (upper and lower chambers) wherein the chambers are separated by a […] pore size membrane. […] Any fluorescent marked cleavage fragment (unbound fluorescence) in the wells is washed from the well and out of the plate. […]

Ac-Nal-Pro-Phe-Val-Sta-Leu-Phe-NH2: the “percent inhibition of the protease” value was 100%.
